This note sets out measurements from PubChem BioAssay (NCI).

Test systems include UACC-257 melanoma; NCI-H23 lung; SK-MEL-2 melanoma; NCI/ADR-RES ovarian; HS 578T breast; MCF7 breast; OVCAR-8 ovarian; HOP-92 NSCLC; HOP-62 NSCLC; LOX IMVI melanoma; KM12 colon.
Common to all, as to test: DTP human tumour cell line panel, 48 h

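Protocol summary: plate cells (96-well), add compound at 5 concentrations, incubate 48 h, interpolate endpoints linearly. TGI: total growth inhibition.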 Bounds are passed on as bounds.

With `Cc1ccc(S(=O)(=O)CC2CCCn3c2c(C#N)c2ccccc23)cc1` (configuration not stated), the total growth inhibition concentration (TGI) in the assay on UACC-257 melanoma, in the assay on NCI-H23 lung, in the assay on SK-MEL-2 melanoma, in the assay on NCI/ADR-RES ovarian, in the assay on HS 578T breast and in the assay with MCF7 breast was more than 100 µM each time. Moreover, the TGI in the assay with OVCAR-8 ovarian, with HOP-92 NSCLC, with HOP-62 NSCLC, in the assay with LOX IMVI melanoma and in the assay on KM12 colon was more than 100 µM throughout.

With `CC(=O)NCC1OC2COC(c3ccccc3)OC2C2N=C(c3ccccc3)OC12` (configuration not stated), the TGI in the assay on UACC-257 melanoma, in the assay with NCI-H23 lung, in the assay on SK-MEL-2 melanoma, in the assay on NCI/ADR-RES ovarian, in the assay on HS 578T breast and in the assay on MCF7 breast was more than 100 µM throughout. The TGI in the assay with OVCAR-8 ovarian, with HOP-92 NSCLC, in the assay on HOP-62 NSCLC, with LOX IMVI melanoma and with KM12 colon was more than 100 µM each time.

In the case of `CC(C)CCCC(C)[C@H]1CC[C@H]2NCCCC[C@]12C` (some centres not stated), the total growth inhibition concentration (TGI) – broadly, the concentration giving total growth inhibition – is 9.37 µM in the assay on UACC-257 melanoma; 23.8 µM in the assay with NCI-H23 lung; 7.82 µM with SK-MEL-2 melanoma; 20.7 µM in the assay on NCI/ADR-RES ovarian; 15.8 µM with HS 578T breast; 4.37 µM with MCF7 breast. Besides, the TGI in the assay on OVCAR-8 ovarian is more than 25.4 µM; with HOP-92 NSCLC, 15.5 µM; with HOP-62 NSCLC it was 29.1 µM; in the assay with LOX IMVI melanoma it was 4.23 µM; in the assay on KM12 colon, 6.96 µM.

Consider `CCCC(CC)c1cc(O)c(O)cc1C(CC)CCC` (configuration not stated), for which the concentration for total growth inhibition (TGI) in the assay on UACC-257 melanoma, in the assay with NCI-H23 lung, with SK-MEL-2 melanoma, with NCI/ADR-RES ovarian, in the assay with HS 578T breast and in the assay on MCF7 breast was more than 10 µM each time. Also, the concentration for total growth inhibition (TGI) in the assay on OVCAR-8 ovarian, in the assay on HOP-92 NSCLC, in the assay with HOP-62 NSCLC, with LOX IMVI melanoma and in the assay on KM12 colon was more than 10 µM in each case.

Regarding `Cn1c(O)c(/C=N/c2ncccn2)c(=O)[nH]c1=O`, the TGI with UACC-257 melanoma, in the assay with NCI-H23 lung, in the assay with SK-MEL-2 melanoma, with NCI/ADR-RES ovarian, in the assay on HS 578T breast and with MCF7 breast was more than 100 µM in each case. Besides, the TGI in the assay with OVCAR-8 ovarian, with HOP-92 NSCLC, in the assay on HOP-62 NSCLC, with LOX IMVI melanoma and in the assay with KM12 colon was more than 100 µM in each case.

Regarding `Cc1cc2nc3c(N)nn(CCN(C)C)c3nc2cc1C`, the TGI in the assay on UACC-257 melanoma, with NCI-H23 lung, in the assay with SK-MEL-2 melanoma, in the assay with NCI/ADR-RES ovarian, with HS 578T breast and with MCF7 breast was more than 100 µM throughout. In addition, the total growth inhibition concentration (TGI) in the assay on OVCAR-8 ovarian is more than 100 µM; in the assay on HOP-92 NSCLC, more than 100 µM; with HOP-62 NSCLC, more than 100 µM; in the assay on LOX IMVI melanoma, 76.2 µM; with KM12 colon it was more than 100 µM.

Turning to `O=[N+]([O-])c1cccc([N+](=O)[O-])c1Cl`, the total growth inhibition concentration (TGI) in the assay on UACC-257 melanoma was 23.6 µM; in the assay with NCI-H23 lung, 40.5 µM; in the assay with SK-MEL-2 melanoma it was 43.9 µM; in the assay on NCI/ADR-RES ovarian it was 57.4 µM; in the assay on HS 578T breast, 82.3 µM; in the assay with MCF7 breast, more than 100 µM. Moreover, the TGI in the assay with OVCAR-8 ovarian is 31.5 µM; with HOP-92 NSCLC, 45.3 µM; with HOP-62 NSCLC it was more than 100 µM; in the assay on LOX IMVI melanoma, 6.88 µM; in the assay with KM12 colon, 29.5 µM.

For the compound `O=c1cnc2cc3ccccc3cc2[nH]1`, the TGI in the assay on UACC-257 melanoma, in the assay with NCI-H23 lung, in the assay with SK-MEL-2 melanoma, in the assay on NCI/ADR-RES ovarian, in the assay with HS 578T breast and with MCF7 breast was more than 100 µM throughout. The total growth inhibition concentration (TGI) in the assay on OVCAR-8 ovarian, with HOP-92 NSCLC, in the assay on HOP-62 NSCLC, with LOX IMVI melanoma and in the assay on KM12 colon was more than 100 µM each time.

Turning to `OCC1c2ccccc2-n2nc(-c3ccccc3)c(O)c21` (configuration not stated), the concentration for total growth inhibition (TGI) is more than 100 µM in the assay on UACC-257 melanoma; more than 100 µM with NCI-H23 lung; 43.9 µM in the assay with SK-MEL-2 melanoma; 51.1 µM in the assay on NCI/ADR-RES ovarian; more than 100 µM in the assay on HS 578T breast; 36.7 µM with MCF7 breast. Besides, the concentration for total growth inhibition (TGI) with OVCAR-8 ovarian was 37.6 µM; in the assay on HOP-92 NSCLC, 35 µM; in the assay with HOP-62 NSCLC, more than 100 µM; in the assay with LOX IMVI melanoma it was 47 µM; in the assay on KM12 colon, 46.1 µM.

`CCOC(=O)c1c(SCCN2CCCCC2)n(-c2ccccc2)c(=S)n(-c2ccccc2)c1=O`: the TGI is 17.1 µM in the assay on UACC-257 melanoma; 34.8 µM with NCI-H23 lung; more than 100 µM with SK-MEL-2 melanoma; 41.7 µM with NCI/ADR-RES ovarian; 80.1 µM in the assay on HS 578T breast; 18.3 µM with MCF7 breast. The concentration for total growth inhibition (TGI) was found to be 54.1 µM in the assay with OVCAR-8 ovarian; 30.8 µM in the assay with HOP-92 NSCLC; 40.8 µM in the assay with HOP-62 NSCLC; 26.2 µM in the assay with LOX IMVI melanoma; 35 µM with KM12 colon.

On to `CN1C(=O)C(CCO)(C(C)(C)C)c2ccccc21` (configuration not stated), for which the TGI with UACC-257 melanoma, with NCI-H23 lung, in the assay on SK-MEL-2 melanoma, in the assay on NCI/ADR-RES ovarian, in the assay on HS 578T breast and in the assay with MCF7 breast was more than 100 µM in each case. For the same compound, the concentration for total growth inhibition (TGI) in the assay with OVCAR-8 ovarian, in the assay with HOP-92 NSCLC, with HOP-62 NSCLC, in the assay on LOX IMVI melanoma and in the assay with KM12 colon was more than 100 µM each time.

As for `Cc1ccc(C2(N3CCOCC3)OC(C)(C)c3cccc4cccc2c34)cc1` (configuration not stated), the TGI was found to be 34.6 µM in the assay on UACC-257 melanoma; 34.9 µM in the assay on NCI-H23 lung; 30.5 µM in the assay with SK-MEL-2 melanoma; 31.2 µM in the assay on NCI/ADR-RES ovarian; 46 µM in the assay with HS 578T breast; 33.2 µM in the assay with MCF7 breast. The total growth inhibition concentration (TGI) was 33.6 µM in the assay on OVCAR-8 ovarian; 25.5 µM with HOP-92 NSCLC; 32.9 µM in the assay on HOP-62 NSCLC; 31 µM in the assay on LOX IMVI melanoma; 57.2 µM in the assay with KM12 colon.
